The test system of data set [1] is intact ZIKV particles. Kind of data set: Urine and serum matrix effect on the direct ELISA signal. It counts as binding, Zika virus. Particulars: peptide 20 μM; for signal decrease in serum: serum diluted 1:10; for signal decrease in serum / signal decrease in urine: 10 mM PBS pH 7.4; for signal decrease in urine: urine diluted 1:1. Here is the method:
(§1) After coating the plates overnight, the intact virus particles were removed by washing five times with the washing buffer (PBST) 10 mM PBS pH 7.4, 0.1% Tween-20, using an automated plate washer (MultiWash+, Molecular Devices, Sunnyvale, CA). Then, the plates were blocked with 200 μL of blocking buffers while shaking at 300 rpm at room temperature. The blocking buffers used were Pierce™ protein-free (PBS) blocking buffer (PF), Blocker™ BLOTTO (BT) in TBS, SuperBlock^TM blocking buffer, Blocker™ BSA (1X) in PBS all from ThermoFisher Scientific. After 2 h, the blocking buffers were removed using the same washing procedure mentioned above. Hundred microliter aliquots of several dilutions of peptides biotinylated in 10 mM PBS pH 7.4 were placed in each well and incubated for 2 h while shaking at 300 rpm at room temperature. After the incubation, the unreacted peptides were removed by using the plate washer with the same settings. Then, 100 μL-aliquots of streptavidin-HRP (ThermoFisher Scientific) at a concentration of 20 ng/mL were added into each well and incubated for 30 min at room temperature without shaking. After the incubation, excess streptavidin-HRP was removed and the wells were washed with the plate washer five times using the washing buffer. Finally, 100 μL-aliquots of the Ultra TMB-ELISA substrate solution (ThermoFisher Scientific) were added and after 10 min, the reaction was stopped by adding 100 μL aliquots of the TMB stop solution from SeraCare, available online at; https://www.seracare.com (accessed on 1 abril 2019). The […] (450 nm) was read using a microplate reader (Clariostar Optima; BMG Labtech, Ortenberg, Germany).
Usually, the presence of ZIKV in affected bodies is detected in biological fluids. Therefore, the analytical sensitivity of the selected peptides was tested in two biological matrices, namely, urine and serum. The matrix effect was investigated to understand how real biological fluids could modify the binding efficiency of the peptides.
Figure 8 reports the ELISA data using solutions of peptides with or without the urine and serum obtained, coating clear 96-well plates with 10^6 and 10^7 copies/mL of intact ZIKV particles. Serum and urine were 1:10 and 1:1 diluted, respectively, with a concentrated peptide PBS solution to obtain a peptide final concentration of 20 μM (10 mM PBS, pH 7.4). A coating concentration of 10^5 was also tested, but no signal was observed after the addition of the biological matrix.

Data set [2] has as its system intact ZIKV particles. Description: Direct ELISA vs. intact ZIKV particles. The conditions noted are these: for FPLR—Dynamic Range: direct ELISA, plates coated with 10-fold serial dilutions of intact ZIKV particles, biotinylated peptide 20 μM in PBS pH 7.4 (4G2 1 μg/mL in PBST), absorbance 450 nm; for FPLR—Dynamic Range / FPLR—maximum / FPLR—minimum: four parameters logistic fit; for FPLR—Dynamic Range / FPLR—C50 / LOD: n = 3; for Long-term stability: dose-response performance of the ELISA reproducible over time, stock 1 mM in 10 mM PBS pH 7.4 stored at −30° C; for FPLR—C50: four parameters logistic fit of delta absorbance vs log ZIKV concentration; for FPLR—C50 / FPLR—maximum / FPLR—minimum / LOD: peptide 20 μM in PBS (4G2 1 μg/mL in PBST); for LOD: interpolated from calibration curve, LOD = AvB + 3 × SDB. It counts as binding, Zika virus. Here is the method: Before biotin functionalization, peptides stock solution was reduced using Tris[2-carboxyethyl] phosphine hydrochloride (TCEP) disulfide reducing gel from ThermoFisher Scientific available online at: www.thermofisher.com (accessed on 15 April 2019) and after 1 h, the gel was removed using TCEP gel spin separation columns (ThermoFisher Scientific). Then, two-fold molar excess of EZ-Link™ Maleimide-PEG2-Biotin (ThermoFisher Scientific) was added to purified peptide solution and incubated for 1 h. […] Therefore, no further separation was carried out.
(§2) To optimize all parameters of the direct ELISA protocol, Pierce 96-well polystyrene plates, (ThermoFisher Scientific) were coated overnight at 4° C with different concentrations of intact virus particles (ZIKV or DENV). The intact virus particles were diluted using 100 mM NaHCO3, pH 9.6, and aliquots of 100 μL were dispensed into each well of the plate using a multichannel pipette. This buffer pH assured a strong hydrophobic binding interaction between polystyrene and virus particles.
The antibody 4G2 hybridoma mouse IgG2a was used as the reference and employed in combination with an anti-mouse IgG conjugated to HRP.
as §1
The corresponding blank signals in triplicates were obtained by using all reagents without peptides. They were subtracted to the average absorbance values for triplicate wells of each test.
The optimal concentration of peptide was determined by coating clear 96-well plates with a solution of 10^7 copies/mL of intact ZIKV particles. Concentrations of peptide, from 0.1 to 50 μM, diluted in 10 mM PBS pH 7.4 were added to wells of the microplates coated with intact ZIKV particles. […] Thus, a peptide concentration of 20 μM was used to estimate the linear range and the limit of detection (LOD) of the assay by using 10-fold serial dilutions of intact ZIKV particles from 10^1 to 10^9 copies/mL.
The regression parameters of the assay are reported in Table 4 and the sigmoidal trend in Figure 6. The LOD was interpolated from the calibration curves using LOD = AvB + 3 × SDB, where AvB and SDB were the average (Av) and the standard deviation (SD) of the blank measurements, respectively.

In data set [3] the test system is DENV-1 intact virus particles. Description: Direct ELISA cross-reactivity, DENV-1. It counts as binding. Particulars: plates coated with 10^6 copies/mL of intact virus particles; peptide 20 μM. Here is the method: as §2
(§3) After coating the plates overnight, the intact virus particles were removed by washing five times with the washing buffer (PBST) 10 mM PBS pH 7.4, 0.1% Tween-20, using an automated plate washer (MultiWash+, Molecular Devices, Sunnyvale, CA). Then, the plates were blocked with 200 μL of blocking buffers while shaking at 300 rpm at room temperature. The blocking buffers used were Pierce™ protein-free (PBS) blocking buffer (PF), Blocker™ BLOTTO (BT) in TBS, SuperBlock^TM blocking buffer, Blocker™ BSA (1X) in PBS all from ThermoFisher Scientific. After 2 h, the blocking buffers were removed using the same washing procedure mentioned above. […] The […] (450 nm) was read using a microplate reader (Clariostar Optima; BMG Labtech, Ortenberg, Germany). […]

For data set [4], the system named is DENV-2 intact virus particles. Kind of data set: Direct ELISA cross-reactivity, DENV-2. The format is binding. The conditions noted are these: plates coated with 10^6 copies/mL of intact virus particles; peptide 20 μM. The method, then: as §2, §3
The mark [5] stands for this setting: 10^6 copies/mL of intact ZIKV particles.
Setting [6] is: 10^7 copies/mL of intact ZIKV particles.

With “C-GSKANNG [H1, experimental peptide with N-terminal cysteine, labelled with maleimide-PEG2-biotin for ELISA]”, in the data set on intact ZIKV particles [1] (setting [5]), the “signal decrease in serum” value is on record as 82% and the “signal decrease in urine” value was found to be 53%. Moreover, in the data set with intact ZIKV particles [1] (setting [6]), the “signal decrease in serum” value is 73% and the “signal decrease in urine” value amounted to 45%. In the data set on intact ZIKV particles [2], the “FPLR—Dynamic Range” value is 5-7 log[ZIKV], copies/mL; the Long-term stability is reported as over 1 Month; the “FPLR—C50” value was 6.2 log[ZIKV], copies/mL; the “FPLR—maximum” value was 0.826 Absorbance (450 nm). In the data set with intact ZIKV particles [2], the “FPLR—minimum” value is listed as 0.036 Absorbance (450 nm) and the LOD is 4.5 log[ZIKV], copies/mL. For the same substance, the “DENV/ZIKV signal ratio, DENV-1” value in data set [3] is listed as “up to 42%”.
With “C-KRNATP [X1, experimental peptide with N-terminal cysteine, labelled with maleimide-PEG2-biotin for ELISA]”, the “detection limit in urine and serum” value with intact ZIKV particles [1] (serum 1:10 and urine 1:1) is 10^7 copies/mL. Moreover, in the data set with intact ZIKV particles [1] (setting [5]), the “signal decrease in serum” value came to 95% and the “signal decrease in urine” value amounted to 95%. In addition, in the data set on intact ZIKV particles [1] (setting [6]), the “signal decrease in serum” value amounted to 89% and the “signal decrease in urine” value was 82%. In addition, the “DENV/ZIKV signal ratio, DENV-2” value in data set [4] is recorded as 49%. Also, in the data set with intact ZIKV particles [2], the “FPLR—Dynamic Range” value is 5-7 log[ZIKV], copies/mL; the Long-term stability is over 1 Month; the “FPLR—C50” value was 6.1 log[ZIKV], copies/mL; the “FPLR—maximum” value is 0.973 Absorbance (450 nm). Moreover, in the data set on intact ZIKV particles [2], the “FPLR—minimum” value is 0.026 Absorbance (450 nm) and the LOD was 4.8 log[ZIKV], copies/mL. For the same substance, the “DENV/ZIKV signal ratio, DENV-1” value in data set [3] is on record as 32%.
For the substance “C-KTDAYS [X2, experimental peptide with N-terminal cysteine, labelled with maleimide-PEG2-biotin for ELISA]”, in the data set with intact ZIKV particles [2], the “FPLR—Dynamic Range” value was 6-8 log[ZIKV], copies/mL; the Long-term stability was over 1 Month; the “FPLR—C50” value is 6.2 log[ZIKV], copies/mL; the “FPLR—maximum” value is given as 0.915 Absorbance (450 nm). Moreover, in the data set with intact ZIKV particles [2], the “FPLR—minimum” value was 0.007 Absorbance (450 nm) and the LOD was 5.8 log[ZIKV], copies/mL.
Take “C-LRGHA [P2, experimental peptide with N-terminal cysteine, labelled with maleimide-PEG2-biotin for ELISA]”: in the data set on intact ZIKV particles [1] (setting [5]), the “signal decrease in serum” value is reported as 77% and the “signal decrease in urine” value is 72%. Besides, in the data set on intact ZIKV particles [1] (setting [6]), the “signal decrease in serum” value amounted to 72% and the “signal decrease in urine” value stood at 85%. Besides, the “DENV/ZIKV signal ratio, DENV-2” value in data set [4] is 34%. In the data set with intact ZIKV particles [2], the “FPLR—Dynamic Range” value is 5-7 log[ZIKV], copies/mL; the Long-term stability is on record as over 1 Month; the “FPLR—C50” value is 6.1 log[ZIKV], copies/mL; the “FPLR—maximum” value was 0.928 Absorbance (450 nm). Also, in the data set with intact ZIKV particles [2], the “FPLR—minimum” value was 0.036 Absorbance (450 nm) and the LOD is 4.7 log[ZIKV], copies/mL.
Consider “C-SHRNATA [H2, experimental peptide with N-terminal cysteine, labelled with maleimide-PEG2-biotin for ELISA]”, for which, in the data set on intact ZIKV particles [2], the “FPLR—Dynamic Range” value was 6-8 log[ZIKV], copies/mL; the Long-term stability is recorded as over 1 Month; the “FPLR—C50” value is 6.5 log[ZIKV], copies/mL; the “FPLR—maximum” value is on record as 0.683 Absorbance (450 nm). In the data set on intact ZIKV particles [2], the “FPLR—minimum” value is 0.014 Absorbance (450 nm) and the LOD was 5.7 log[ZIKV], copies/mL.
Regarding “C-SWPGQ [P1, experimental peptide with N-terminal cysteine, labelled with maleimide-PEG2-biotin for ELISA]”, in the data set on intact ZIKV particles [2], the “FPLR—Dynamic Range” value is 7-8 log[ZIKV], copies/mL; the Long-term stability is reported as over 1 Month; the “FPLR—C50” value was 6.6 log[ZIKV], copies/mL; the “FPLR—maximum” value is listed as 0.140 Absorbance (450 nm). In the data set on intact ZIKV particles [2], the “FPLR—minimum” value is 0.001 Absorbance (450 nm) and the LOD was 6.8 log[ZIKV], copies/mL.

Source of the values: PMC6770336, “Computationally Designed Peptides for Zika Virus Detection: An Incremental Construction Approach” (Biomolecules, 2019).
